Drawing on US11986475B1, “Compositions and methods for treating cancer” (A2A Pharmaceuticals, Inc., priority 2022, dated 2024), this text covers IC50 for eleven molecules.

A word on the IC50: it is the midpoint of a concentration-inhibition curve. Low values mean greater potency, high ones weaker potency.

The test system of one experiment is HEC-59. The experiment is described as follows: Cell viability assay (SRB or CTG) in HEC-59. It counts as cell-based. To be noted: Homo sapiens, 7 days total, media renewed at day 4, SRB or CTG. As for the experimental part: (§1) Human breast carcinoma cell line, MDA-MB-231 and human endometrial cancer cell line, HEC-59 were purchased from ATCC (American Type Culture Collection; USA). MDA-MB-231 cells were cultured in Dulbecco's modified Eagle's medium (Lonza, NJ, USA), and HEC-59 were grown in Iscove's Modified Dulbecco's Medium (Lonza, NJ, USA), supplemented with 10% fetal bovine serum (FBS, Lonza), 1% non-essential amino acid (NEAA), 2 mM L-glutamine (Sigma Aldrich, MO, USA) and 50 U/ml penicillin/streptomycin (P/S). All cell lines were tested regularly using MycoAlert Mycoplasma Detection Kit (Lonza). The cumulative length of the cells between thawing and use in the experiments was less than 20 passages.
(§2) 4000 cells/well of MDA-MB-231 and HEC-59 cells were seeded in a 96 well plate in 80 μL media/well. Approximately 18 hours later, 3× drug solutions were prepared by serial dilution (100, 10, 5, 1, 0.5, 0.3, 0.1, 0.05, 0.01 μM), and the drug containing media was added to each well with a volume of 40 μL. For MDA-MB-231, 3 days after drug treatment, the SRB or CTG assay was performed. HEC59, the drug containing media was renewed at day 4. After 7 days total, the SRB or CTG assay was performed.

The next experiment deals with MDA-MB-231. The experiment is described as follows: Cell viability assay (SRB or CTG) in MDA-MB-231. It counts as cell-based. To be noted: Homo sapiens, MDA-MB-231, 72 h, 3 days after drug treatment. As for the experimental part:
as §1, §2

Turning to `C[C@@H]1CN(c2ncc(F)c(Nc3cc(-c4ccc(OC(F)F)cc4)cnn3)n2)C[C@@H](C)O1` [Compound 90, 5-(4-(difluoromethoxy)phenyl)-N-(2-((2R,6R)-2,6-dimethylmorpholino)-5-fluoropyrimidin-4-yl)pyridazin-3-amine], the results for the concentration for half-maximal inhibition (IC50) in the experiment on HEC-59 and in the experiment on MDA-MB-231 were 1100 nM and 533 nM, respectively.
`C[C@H]1CN(c2ncc(F)c(Nc3cc(-c4ccc(OC(F)F)cc4)cnn3)n2)C[C@H](C)O1` [Compound 91, 5-(4-(difluoromethoxy)phenyl)-N-(2-((2S,6S)-2,6-dimethylmorpholino)-5-fluoropyrimidin-4-yl)pyridazin-3-amine]: the IC50 in the experiment with HEC-59 was 200 nM; in the experiment on MDA-MB-231, 328 nM.
As for `Fc1cnc(N2CCOC3CC32)nc1Nc1cc(-c2ccc(OC(F)F)cc2)cnn1` (stereo not shown) [Compound 103, N-(2-(2-oxa-5-azabicyclo[4.1.0]heptan-5-yl)-5-fluoropyrimidin-4-yl)-5-(4-(difluoromethoxy)phenyl)pyridazin-3-amine], the IC50 in the experiment on HEC-59 and in the experiment on MDA-MB-231 was over 10000 nM in each case.
Take `Fc1cnc(N2CCCC2)nc1Nc1cc(-c2ccc(OC(F)F)cc2)cnn1` [Compound 104, 5-(4-(difluoromethoxy)phenyl)-N-(5-fluoro-2-(pyrrolidin-1-yl)pyrimidin-4-yl)pyridazin-3-amine]: the IC50 in the experiment on HEC-59 is 86 nM; with MDA-MB-231 it was 345 nM.
`C[C@@H]1CN(c2nc(F)cc(Nc3cc(-c4ccc(OC(F)F)cc4)cnn3)n2)C[C@H](C)O1` [Compound 131, 5-(4-(difluoromethoxy)phenyl)-N-(2-((2R,6S)-2,6-dimethylmorpholino)-6-fluoropyrimidin-4-yl)pyridazin-3-amine]: the IC50 in the experiment on HEC-59 was 142 nM; in the experiment with MDA-MB-231, 181 nM.
On to `C[C@@H]1CN(c2nccc(Nc3cc(-c4ccc(OC(F)F)cc4)cnc3F)n2)C[C@H](C)O1` [Compound 182, N-(5-(4-(difluoromethoxy)phenyl)-2-fluoropyridin-3-yl)-2-((2R,6S)-2,6-dimethylmorpholino)pyrimidin-4-amine], for which the IC50 in the experiment on HEC-59 turned out to be 290 nM; in the experiment on MDA-MB-231, 1090 nM.
In the same order, the values of `C[C@@H]1CN(c2ccc(F)c(Nc3cc(-c4ccc(OC(F)F)cc4)cnn3)n2)C[C@H](C)O1` [Compound 223, 5-(4-(difluoromethoxy)phenyl)-N-(6-((2R,6S)-2,6-dimethylmorpholino)-3-fluoropyridin-2-yl)pyridazin-3-amine] are 61 nM and 84 nM.
As for `C[C@@H]1CN(c2nccc(Nc3cc(-c4ccc(OC(F)F)cc4)c[nH]c3=O)n2)C[C@H](C)O1` [Compound 264, 5-(4-(difluoromethoxy)phenyl)-3-((2-((2R,6S)-2,6-dimethylmorpholino)pyrimidin-4-yl)amino)pyridin-2(1H)-one], the IC50 with HEC-59 is 121 nM; in the experiment on MDA-MB-231 it was 202 nM.
For the molecule `COc1ncc(-c2ccc(OC(F)F)cc2)cc1Nc1ccnc(N2C[C@@H](C)O[C@@H](C)C2)n1` [Compound 305, N-(5-(4-(difluoromethoxy)phenyl)-2-methoxypyridin-3-yl)-2-((2R,6S)-2,6-dimethylmorpholino)pyrimidin-4-amine], the IC50 in the experiment on HEC-59 and in the experiment with MDA-MB-231 was over 10000 nM throughout.
Take `C[C@@H]1CN(c2ncc(F)c(Nc3cc(-c4ccc(OC(F)F)cc4)c[nH]c3=O)n2)C[C@H](C)O1` [Compound 346, 5-(4-(difluoromethoxy)phenyl)-3-((2-((2R,6S)-2,6-dimethylmorpholino)-5-fluoropyrimidin-4-yl)amino)pyridin-2(1H)-one]: the values for the half-maximal inhibitory concentration (IC50) in the experiment on HEC-59 and with MDA-MB-231 were 784 nM and 1050 nM, respectively.
With `COc1ncc(-c2ccc(OC(F)F)cc2)cc1Nc1nc(N2C[C@@H](C)O[C@@H](C)C2)ncc1F` [Compound 387, N-(5-(4-(difluoromethoxy)phenyl)-2-methoxypyridin-3-yl)-2-((2R,6S)-2,6-dimethylmorpholino)-5-fluoropyrimidin-4-amine], the concentration for half-maximal inhibition (IC50) in the experiment with HEC-59 and in the experiment on MDA-MB-231 was over 10000 nM in each case.
